Experimental data taken from patent US20240156889A1, “A METHOD FOR REDUCING ANIMAL WEIGHT” (BEIJING WEHAND-BIO PHARMACEUTICAL CO., LTD, priority 2021, published 2024).

Experiment: Clinical Experiment 2: weight of type 2 diabetics, acarbose-controlled double-blind study
Assay type: in vivo, human
Details: SZ-A = tablets of Embodiment 1 extract, 50 mg total alkaloids each
Source text: • 1. Objective • Effect of Ramulus Mori extract on reducing weight of diabetics. • 2. Experiment method • 2.1 Grouping • Random, double-blind and double-simulation, parallel control of acarbose tablets, multicenter, non-inferiority were adopted in the study design. A total of 600 patients with type 2 diabetes (aged 18 to 70 years old, 19 kg/m^2≤BMI≤30 kg/m^2, 7%≤HbAlC≤10%) and poor blood glucose control were included, and were randomly divided into a total alkaloid tablet group (SZ-A, N=360) and a acarbose (Glucobay®) group (CON, N=240). All signed informed consents. […] (1) From the Pt to the 24th week of administration, the height, weight and weight gain of each group were observed and recorded every day. […]

C[C@H]1O[C@H](O[C@H]2[C@H](O)[C@@H](O)[C@@H](O[C@H]3[C@H](O)[C@@H](O)C(O)O[C@@H]3CO)O[C@@H]2CO)[C@H](O)[C@@H](O)[C@@H]1N[C@H]1C=C(CO)[C@@H](O)[C@H](O)[C@H]1O (some centres unmarked) [acarbose]
average change of weight (type 2 diabetics with BMI≥28 kg/m^2, after 8 weeks of administration): 0.210 kg | average change of weight (type 2 diabetics with BMI≥28 kg/m^2, after 24 weeks of administration): -0.182 kg
